From the supplement of paper PMC10307832

Legend:
Experiment in all cases: relative viability (nuclei count vs DMSO), 5 days (fraction); higher = more cells survive
NCI-H522 = system: NCI-H522
Procedure, shortened: (§1)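 Each reported value is a median over duplicate plates. It expresses relative viability: treated-well nuclei count divided by vehicle-well nuclei count. Lung cancer cell lines in 1536-well plates were dosed by pin tool a day after seeding, alone with one drug or with a fixed anchor-drug dose plus five library-drug doses (not always all listed) in √10 steps, and nuclei were counted after 5 days.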

NCI-H661 = system: NCI-H661
Procedure, shortened: as §1

NCI-H1755 = system: NCI-H1755
Procedure, shortened: as §1

NCI-H650 = system: NCI-H650
Procedure, shortened: as §1

NCI-H596 = system: NCI-H596
Procedure, shortened: as §1

NCI-H441 = system: NCI-H441
Procedure, shortened: as §1

NCI-H520 = system: NCI-H520
Procedure, shortened: as §1

NCI-H1355 = system: NCI-H1355
Procedure, shortened: as §1

NCI-H2347 = system: NCI-H2347
Procedure, shortened: as §1

NCI-H2170 = system: NCI-H2170
Procedure, shortened: as §1

NCI-H3122 = system: NCI-H3122
Procedure, shortened: as §1

PC-14 = system: PC-14
Procedure, shortened: as §1

SK-MES-1 = system: SK-MES-1
Procedure, shortened: as §1

NCI-H727 = system: NCI-H727
Procedure, shortened: as §1

LCLC-103H = system: LCLC-103H
Procedure, shortened: as §1

NCI-H1651 = system: NCI-H1651
Procedure, shortened: as §1

SW 900 = system: SW 900
Procedure, shortened: as §1

RERF-LC-KJ = system: RERF-LC-KJ
Procedure, shortened: as §1

NCI-H1563 = system: NCI-H1563
Procedure, shortened: as §1

LXF-289 = system: LXF-289
Procedure, shortened: as §1

NCI-H1915 = system: NCI-H1915
Procedure, shortened: as §1

NCI-H322M = system: NCI-H322M
Procedure, shortened: as §1

NCI-H1792 = system: NCI-H1792
Procedure, shortened: as §1

NCI-H460 = system: NCI-H460
Procedure, shortened: as §1

C[C@@H]1CN(CC(=O)Nc2ccc3c(c2)Cc2cccc(-c4cc(=O)cc(N5CCOCC5)o4)c2S3)C[C@H](C)O1 + CCNC(=O)c1noc(-c2cc(C(C)C)c(O)cc2O)c1-c1ccc(CN2CCOCC2)cc1 [Luminespib] (partner 0.01 µM)
relative viability (NCI-H522; first compound 0.1265 µM): 1.17
relative viability (NCI-H522; first compound 0.4 µM): 1.06
relative viability (NCI-H522; first compound 4 µM): 0.896
relative viability (NCI-H661; first compound 0.04 µM): 0.964
relative viability (NCI-H661; first compound 0.1265 µM): 0.938
relative viability (NCI-H661; first compound 0.4 µM): 0.97
relative viability (NCI-H661; first compound 4 µM): 0.813
relative viability (NCI-H1755; first compound 0.04 µM): 0.398
relative viability (NCI-H1755; first compound 0.1265 µM): 0.361
relative viability (NCI-H1755; first compound 0.4 µM): 0.45
relative viability (NCI-H1755; first compound 4 µM): 0.258
relative viability (NCI-H650; first compound 0.04 µM): 0.836
relative viability (NCI-H650; first compound 0.1265 µM): 0.827
relative viability (NCI-H650; first compound 0.4 µM): 0.831
relative viability (NCI-H650; first compound 4 µM): 0.738
relative viability (NCI-H596; first compound 0.04 µM): 1.16
relative viability (NCI-H596; first compound 0.1265 µM): 1.18
relative viability (NCI-H596; first compound 0.4 µM): 0.921
relative viability (NCI-H596; first compound 4 µM): 0.964
relative viability (NCI-H441; first compound 0.04 µM): 0.305
relative viability (NCI-H441; first compound 0.1265 µM): 0.354
relative viability (NCI-H441; first compound 0.4 µM): 0.274
relative viability (NCI-H441; first compound 4 µM): 0.309
relative viability (NCI-H520; first compound 0.04 µM): 0.249
relative viability (NCI-H520; first compound 0.1265 µM): 0.256
relative viability (NCI-H520; first compound 0.4 µM): 0.224
relative viability (NCI-H520; first compound 4 µM): 0.221
relative viability (NCI-H1355; first compound 0.04 µM): 0.678
relative viability (NCI-H1355; first compound 0.1265 µM): 0.693
relative viability (NCI-H1355; first compound 0.4 µM): 0.704
relative viability (NCI-H1355; first compound 4 µM): 0.805
relative viability (NCI-H2347; first compound 0.04 µM): 0.926
relative viability (NCI-H2347; first compound 0.1265 µM): 0.475
relative viability (NCI-H2347; first compound 0.4 µM): 0.438
relative viability (NCI-H2347; first compound 4 µM): 0.534
relative viability (NCI-H2170; first compound 0.04 µM): 0.661
relative viability (NCI-H2170; first compound 0.1265 µM): 0.67
relative viability (NCI-H2170; first compound 0.4 µM): 0.677
relative viability (NCI-H2170; first compound 4 µM): 0.86
relative viability (NCI-H3122; first compound 0.04 µM): 0.0752
relative viability (NCI-H3122; first compound 0.1265 µM): 0.102
relative viability (NCI-H3122; first compound 0.4 µM): 0.0706
relative viability (NCI-H3122; first compound 4 µM): 0.0744
relative viability (PC-14; first compound 0.04 µM): 0.142
relative viability (PC-14; first compound 0.1265 µM): 0.122
relative viability (PC-14; first compound 0.4 µM): 0.15
relative viability (PC-14; first compound 4 µM): 0.144
relative viability (SK-MES-1; first compound 0.04 µM): 0.659
relative viability (SK-MES-1; first compound 0.1265 µM): 0.764
relative viability (SK-MES-1; first compound 0.4 µM): 0.664
relative viability (SK-MES-1; first compound 4 µM): 0.475
relative viability (NCI-H727; first compound 0.04 µM): 0.362
relative viability (NCI-H727; first compound 0.1265 µM): 0.603
relative viability (NCI-H727; first compound 0.4 µM): 0.37
relative viability (NCI-H727; first compound 4 µM): 0.388
relative viability (LCLC-103H; first compound 0.04 µM): 0.949
relative viability (LCLC-103H; first compound 0.1265 µM): 0.971
relative viability (LCLC-103H; first compound 0.4 µM): 0.906
relative viability (LCLC-103H; first compound 4 µM): 0.72
relative viability (NCI-H1651; first compound 0.04 µM): 0.891
relative viability (NCI-H1651; first compound 0.1265 µM): 0.719
relative viability (NCI-H1651; first compound 0.4 µM): 0.885
relative viability (NCI-H1651; first compound 4 µM): 0.634
relative viability (SW 900; first compound 0.04 µM): 0.166
relative viability (SW 900; first compound 0.1265 µM): 0.165
relative viability (SW 900; first compound 0.4 µM): 0.169
relative viability (SW 900; first compound 4 µM): 0.178
relative viability (RERF-LC-KJ; first compound 0.04 µM): 1.18
relative viability (RERF-LC-KJ; first compound 0.1265 µM): 1.18
relative viability (RERF-LC-KJ; first compound 0.4 µM): 1.19
relative viability (RERF-LC-KJ; first compound 4 µM): 0.709
relative viability (NCI-H1563; first compound 0.04 µM): 0.512
relative viability (NCI-H1563; first compound 0.1265 µM): 0.514
relative viability (NCI-H1563; first compound 0.4 µM): 0.477
relative viability (NCI-H1563; first compound 4 µM): 0.514
relative viability (LXF-289; first compound 0.04 µM): 0.657
relative viability (LXF-289; first compound 0.1265 µM): 0.645
relative viability (LXF-289; first compound 0.4 µM): 0.714
relative viability (LXF-289; first compound 4 µM): 0.73
relative viability (NCI-H1915; first compound 0.04 µM): 0.761
relative viability (NCI-H1915; first compound 0.1265 µM): 0.686
relative viability (NCI-H1915; first compound 0.4 µM): 0.756
relative viability (NCI-H1915; first compound 4 µM): 0.68
relative viability (NCI-H322M; first compound 0.04 µM): 0.767
relative viability (NCI-H322M; first compound 0.1265 µM): 0.765
relative viability (NCI-H322M; first compound 0.4 µM): 0.839
relative viability (NCI-H322M; first compound 4 µM): 0.841
relative viability (NCI-H1792; first compound 0.04 µM): 0.385
relative viability (NCI-H1792; first compound 0.1265 µM): 0.493
relative viability (NCI-H1792; first compound 0.4 µM): 0.399
relative viability (NCI-H1792; first compound 4 µM): 0.333
relative viability (NCI-H460; first compound 0.04 µM): 0.0317
relative viability (NCI-H460; first compound 0.1265 µM): 0.0406
relative viability (NCI-H460; first compound 0.4 µM): 0.0348
relative viability (NCI-H460; first compound 4 µM): 0.0326
